Drawing on patent US6380396B1, “Quaternary ammonium compounds” (Pfizer Inc., priority 1997, dated 2002), this text covers IC50 for five compounds.

Usually IC50 stands for the concentration that inhibits the measured activity by half. A lower IC50 goes with higher potency.

For one experiment, the target named is T1, human NK1 receptor (Homo sapiens, UniProt P25103).
T1 construct: membranes prepared from the human IM9 cell line expressing the human NK1 receptor; endogenous in cells; host or cells: human IM9 cell line (membranes)
T1 sequence (P25103 whole entry): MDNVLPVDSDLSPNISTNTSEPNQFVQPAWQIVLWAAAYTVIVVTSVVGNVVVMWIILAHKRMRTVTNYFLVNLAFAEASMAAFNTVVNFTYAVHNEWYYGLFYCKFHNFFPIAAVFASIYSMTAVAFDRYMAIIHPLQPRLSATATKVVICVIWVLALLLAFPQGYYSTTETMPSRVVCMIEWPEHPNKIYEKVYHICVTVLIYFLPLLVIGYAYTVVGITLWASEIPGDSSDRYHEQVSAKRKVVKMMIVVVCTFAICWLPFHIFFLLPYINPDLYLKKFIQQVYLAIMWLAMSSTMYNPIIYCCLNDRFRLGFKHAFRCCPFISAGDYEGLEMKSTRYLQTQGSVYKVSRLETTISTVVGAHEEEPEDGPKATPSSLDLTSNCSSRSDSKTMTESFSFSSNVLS
Nature of the experiment: inhibition of [3H]-Substance P binding to membranes from human IM9 cell line. An excerpt: The affinity of the compounds of the formula (I) for the human NK1 receptor can be determined in vitro by determining their ability to inhibit [^3H]-Substance P binding to membranes prepared from the human IM9 cell line expressing the human NK1 receptor using a modification of the method described in McLean, S. et al, J. Pharm.Exp.Ther., 267, 472-9 (1993) in which whole cells were used.

The target in another experiment is T2, human NK2 receptor (Homo sapiens, UniProt P21452).
T2 construct: expressed in transfected cells; host or cells: Chinese hamster ovary cells (membranes)
T2 sequence (P21452 1-398): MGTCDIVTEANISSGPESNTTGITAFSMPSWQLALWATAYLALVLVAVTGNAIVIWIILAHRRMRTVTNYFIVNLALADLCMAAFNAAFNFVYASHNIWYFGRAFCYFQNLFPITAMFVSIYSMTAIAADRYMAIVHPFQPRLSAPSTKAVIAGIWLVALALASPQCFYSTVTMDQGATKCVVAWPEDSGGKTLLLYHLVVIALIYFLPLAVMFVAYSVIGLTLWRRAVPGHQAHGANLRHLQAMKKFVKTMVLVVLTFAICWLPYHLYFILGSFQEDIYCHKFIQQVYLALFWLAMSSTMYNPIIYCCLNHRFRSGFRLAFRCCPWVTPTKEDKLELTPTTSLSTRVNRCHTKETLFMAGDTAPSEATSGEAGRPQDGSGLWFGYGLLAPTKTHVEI
The experiment in a line: competition with [3H]-NKA for binding to membranes from Chinese hamster ovary cells expressing the cloned receptor. To be noted: CHO cell membranes, 90 min, 25° C. How it is done:
The affinity of the compounds of formula (I) for the human NK2 receptor can be determined in vitro by determining their ability to compete with [^3H]-NKA (neurokinin A) for binding to membranes prepared from Chinese hamster ovary cells expressing the cloned human NK2 receptor. In this method, washed Chinese hamster ovary cell membranes are prepared as described for the previous method where IM9 cells are used instead. The membranes are incubated (90 min, 25° C.) with [^3H]-NKA and with a range of concentrations of the test compound. Non-specific binding is determined in the presence of 10 μM NKA.

On to `O=C(c1ccc2ccccc2c1)c1nccn1CC(CC[N+]12CCC(c3ccccc3)(CC1)CC2)c1ccc(Cl)c(Cl)c1` (stereo not shown) [Example 6], for which the IC50 was 9 nM at human NK1 receptor and 96 nM at human NK2 receptor.
As for `O=C(c1cccc2c1CCCC2)c1nccn1C[C@@H](CC[N+]12CCC(c3ccccc3)(CC1)CC2)c1ccc(Cl)c(Cl)c1` [Example 18, 4-Phenyl-1-(3(S)-[3,4-dichlorophenyl]-4-[2-(1,2,3,4-tetrahydro-5-naphthoyl)imidazol-1-yl]butyl)quinuclidinium methanesulphonate], the IC50 came to 123 nM on human NK1 receptor and 3 nM at human NK2 receptor.
On to `Cc1cccc(C(=O)c2nccn2CC(CC[N+]23CCC(c4ccccc4)(CC2)CC3)c2ccc(Cl)c(Cl)c2)c1C` (stereo not shown) [Example 2], for which the IC50 is 0.6 nM on human NK1 receptor and 4 nM on human NK2 receptor.
For the compound `O=C(c1cccc2c1OCC2)c1nccn1CC(CC[N+]12CCC(c3ccccc3)(CC1)CC2)c1ccc(Cl)c(Cl)c1` (stereo not shown) [Example 5], the figures for the IC50 at human NK1 receptor and at human NK2 receptor were 8 nM and 11 nM, respectively.
The corresponding values for `O=C(c1cccc2c1CCCC2)c1nccn1C[C@H](CC[N+]12CCC(c3ccccc3)(CC1)CC2)c1ccc(Cl)c(Cl)c1` [Example 19, 4-Phenyl-1-(3(R)-[3,4-dichlorophenyl]-4-[2-(1,2.3,4-tetrahydro-5-naphthoyl)imidazol-1-yl]butyl)quinuclidinium methanesulphonate] are 2 nM and 24 nM.
